In patent US20260365692A1, “COMPOSITIONS COMPRISING PROTEINS DISSOLVED IN FLUORINATED SOLVENTS, AND METHODS OF MAKING AND USING THE SAME” (priority 2022, published 2026):

What was measured:
[1] = Pharmacokinetics of β-Gal in C57BL/6J mice (Example 3); type: in vivo; details: i.v. tail vein
Procedure: Two groups (n=5) of C57BL/6J mice received […] of 10 μM solutions of β-Gal that was either 1) prepared in sterile PBS or 2) dissolved in PFOc (1 mM PFNA) and extracted into sterile PBS. Due to the large solution volumes given (150 μL, ~15% of mouse blood volume), PFOc dispersed proteins were extracted into sterile saline before injection to avoid hyponatremia. Samples were administered by tail vein injection.
At a series of time points, mice were sacrificed, and blood samples collected via cardiac puncture. Bioactivity and bioavailability of β-Gal was determined by conversion of the fluorescent substrate, 4-Methylumbelliferyl-[…] (β-GAL). Whole blood collected in a serum tube was centrifuged at 2000 rcf for 4 minutes to extract serum containing β-Gal protein. 20 μL of the serum was then mixed with 180 μL μ-GAL (for a final substrate concentration of 1 μM). Samples were quickly pipette mixed and incubated in the dark at room temperature for 5 minutes. Fluorescent intensity was measured with λex=360 nm and λem=440 nm. The background fluorescent intensity from serum was determined from serum dilution in PBS without μ-GAL substrate.

BSA [2] = biological target: T1, BSA (Bos taurus, UniProt P02769); assay: FTIR of BSA eluted from PFOc into PBS; set-up: species or system bovine; details: dispersed BSA extracted from PFOc into PBS
Procedure: FIG. 47 depicts stacked FTIR spectra of PD-7, BSA and the PD-7:BSA complex after elution into PBS.
To test this assertion, Fourier transform infrared (FTIR) spectroscopy was performed on BSA samples following extraction of the PD-7 dispersed protein from PFOc into a physiologic buffer. Selected model protein BSA was diluted to […], and PFNA was diluted to 2 mM in PBS. The intermolecular interactions were initiated by adding an equal amount of BSA and PFNA samples into a centrifuge tube. After 1-hour incubation, samples were frozen at −80 °C, and lyophilize overnight to remove water. FTIR spectrometry was then performed on powdered samples using LN-MCT detector (4000-800 cm-1, backward output). Data is represented by average+−SD of wavenumber among replicates depicting corresponding characteristic bonds. An equal volume of PBS was added to the BSA:PD-7 sample in PFOc, and vortexing the phase separated mixture for ~2 seconds.

A549 cells = assay: Protein uptake in A549 cells, GFP; type: cell-based, human; details: PFNA, 24-hour exposure
Procedure: FIGS. 17A-17B depict the uptake of GFP in human lung A549 cells after 2 and 24 hours of incubation in the absence/presence of PFNA. Results are shown in relative fluorescence units (RFU).
Multiplexed in vitro assays were employed to probe the influence of PFNA interactions on protein uptake and transport in cells. A549 and PC9 human lung cells were prioritized for these assays given that pulmonary tissue is a primary site of perfluoroalkyl bioaccumulation in humans (Reference: 63). Before initiating experiments, cellular toxicity assays established a maximum tolerated dose of PFNA to avoid confounding protein transport experiments with substantive cell death. Protein uptake was then studied using green fluorescent protein (GFP) and bovine serum albumin (BSACy5) as model biologics that employ non-specific pinocytic mechanisms for cellular entry.

BSA [3] = biological target: T1, BSA; assay: 19F NMR of PFNA with BSA; type: binding, bovine
Source text: (§1) This further supported the conclusion that, like TFE, adsorption of PFNA to protein surfaces aligned the fluorinated tail parallel to the solvent accessible exterior, with further stabilization via F . . . H bonding with surface N—H groups (FIG. 12, FIGS. 12A-12E, and FIG. 13). This ultimately generated the fluorine rich coating that altered water accessibility and promoted secondary structure.

[4] = test system: bovine serum albumin (BSA), β-Galactosidase (β-Gal), rabbit serum immunoglobulin (IgG), and bovine trypsin; assay: Dispersion efficiency of four model proteins in PFOc (Example 4); type: physicochemical; details: PD:protein molar ratio 1000:1
Procedure: These compounds were screened to evaluate their ability to disperse four model proteins, bovine serum albumin (BSA), β-Galactosidase (β-Gal), rabbit serum immunoglobulin (IgG), and bovine trypsin into the PFOc solvent. […] […] The samples were then briefly vortexed/sonicated then constantly mixed overnight to ensure proper fluorine dispersion. After that, samples were centrifuged at 1950 g for 5 minutes to remove non-dispersed portion, and 100 μL supernatant of dispersed protein sample was transferred into each well of 96-well plate. PFHx solvent was let evaporate at 37 °C for two hours. The remaining protein residue was redissolved in […] PBS, and an equal volume of Coomassie solution was added to the sample. In addition, protein prepared in PBS and PFHx (without PFNA) were also identically processed and included as positive and negative control. Lastly, the amount of protein was quantified by taking absorbance of converted Coomassie solution at 595 nm. Dispersion efficiency was calculated as follows:

IgG = assay: Isothermal titration calorimetry, IgG; type: binding, rabbit
Source text: To test this assertion, PFNA binding to three exemplary proteins, BSA, β-Gal and IgG, was studied via isothermal titration calorimetry (ITC) and surface plasmon resonance (SPR) techniques. […] SPR analysis yielded similar results, with sensorgrams (FIGS. 14J-14L) that diverged from a simple 1:1 ligand-protein model. […] Similar phenomenon may explain the negative signals of the SPR data and further support the ability of PFNA to modulate the conformational plasticity of adsorbed proteins.

TFN = TFN (Bos taurus, UniProt Q29443); assay: 19F NMR of PFNA with TFN; type: binding, bovine
Source text: as §1

urease = assay: Circular dichroism with PFNA, urease
Source text: FIGS. 14A-14L depict circular dichroism spectra of Hb (FIG. 14A), GFP (FIG. 14B), BSA (FIG. 14C), β-Gal (FIG. 14D), rabbit serum IgG (FIG. 14E), transferrin (FIG. 14F), and urease (FIG. 14G) in the absence (black line) or presence (dashed lines) of PFNA. Increasing dash sequence indicated higher concentration of PFNA. FIG. 14H: Change in molar ellipticity at 216 nm (Δθ216) of PFNA-treated proteins, relative to native controls, as a function of increasing ligand concentration. FIG. 14I: Percentage change in secondary structural motifs of Hb, β-Gal and IgG between the native protein and 1 mM PFNA treated samples. β-sheet structures were further differentiated into parallel and antiparallel conformations. Hb, β-Gal and IgG were prioritized for analysis based on their significant spectral shift in the presence of 1 mM PFNA. FIGS. 14J-14L: Sensograms for BSA (FIG. 14J), β-gal (FIG. 14K), and IgG (FIG. 14L) showing relative response (R.U.) at 10, 25, 50, 75, and 100 μM.
To explore PFNA-mediated changes in protein structure, dose-response circular dichroism (CD) studies were performed (FIG. 14A-14G). […] Remarkably, these structural changes endured even at sub-stoichiometric PFNA:protein ratios (see 0.001 mM PFNA in […]; protein concentration was constant at 0.01 mM).

T1 sequence (P02769 25-607): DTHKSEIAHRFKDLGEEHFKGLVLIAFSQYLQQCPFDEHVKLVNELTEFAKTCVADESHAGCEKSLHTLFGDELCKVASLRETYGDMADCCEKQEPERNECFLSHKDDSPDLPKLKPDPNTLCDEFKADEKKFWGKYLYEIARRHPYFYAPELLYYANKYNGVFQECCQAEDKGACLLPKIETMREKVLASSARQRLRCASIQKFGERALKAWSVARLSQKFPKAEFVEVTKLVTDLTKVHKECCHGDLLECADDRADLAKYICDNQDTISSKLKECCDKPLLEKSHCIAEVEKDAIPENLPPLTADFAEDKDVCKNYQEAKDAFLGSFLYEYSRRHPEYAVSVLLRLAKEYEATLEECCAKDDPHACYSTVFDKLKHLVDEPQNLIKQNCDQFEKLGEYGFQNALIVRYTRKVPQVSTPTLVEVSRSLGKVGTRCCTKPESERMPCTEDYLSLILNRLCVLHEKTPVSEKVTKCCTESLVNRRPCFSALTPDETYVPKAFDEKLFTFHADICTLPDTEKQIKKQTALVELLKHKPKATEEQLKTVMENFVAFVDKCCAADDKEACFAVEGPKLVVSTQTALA
TFN, sequence (Q29443 20-704): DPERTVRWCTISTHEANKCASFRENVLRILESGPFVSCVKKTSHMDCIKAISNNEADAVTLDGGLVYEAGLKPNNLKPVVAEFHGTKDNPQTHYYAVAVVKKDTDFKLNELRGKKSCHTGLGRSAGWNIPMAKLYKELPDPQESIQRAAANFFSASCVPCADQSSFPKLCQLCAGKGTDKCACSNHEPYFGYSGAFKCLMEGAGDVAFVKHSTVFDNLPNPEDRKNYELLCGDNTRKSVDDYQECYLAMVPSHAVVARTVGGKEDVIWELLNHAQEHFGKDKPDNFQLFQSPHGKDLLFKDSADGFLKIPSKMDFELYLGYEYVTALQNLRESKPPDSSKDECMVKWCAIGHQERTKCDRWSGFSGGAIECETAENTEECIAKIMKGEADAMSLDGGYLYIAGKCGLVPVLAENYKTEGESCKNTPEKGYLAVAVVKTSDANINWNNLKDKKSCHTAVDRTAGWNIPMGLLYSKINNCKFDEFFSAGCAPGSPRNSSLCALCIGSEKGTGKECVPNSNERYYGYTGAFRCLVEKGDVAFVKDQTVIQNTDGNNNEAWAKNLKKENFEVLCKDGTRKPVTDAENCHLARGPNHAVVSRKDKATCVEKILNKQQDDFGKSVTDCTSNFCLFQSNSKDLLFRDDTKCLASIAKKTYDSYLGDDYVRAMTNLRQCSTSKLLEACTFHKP

Compound | serum half-life t1/2 ([1]; native β-Gal administered in saline) [min] | serum half-life t1/2 ([1]; β-Gal delivered from PFOc dispersion (1 mM PFNA), extracted into saline) [min] | dispersant spectral feature after extraction into physiologic buffer/PBS (BSA [2]) | uptake of GFP (A549 cells) | 19F NMR peak change upon interaction (BSA [3]) | dispersion efficiency [4] [%] | evolution of heat (ITC) (IgG) | 19F NMR peak change upon interaction (TFN) | CD structural profile, urease (urease)
β-Gal: β-Galactosidase (β-Gal), dissolved in PBS/saline or dispersed in PFOc | 6.6 | 7.9 | – | – | – | – | – | – | –
O=C(O)C(F)(F)C(F)(F)C(F)(F)C(F)(F)C(F)(F)C(F)(F)C(F)(F)C(F)(F)F [Compound 7, perfluoronanonic acid] | – | – | showed the presence of C—F stretching vibrations (1500-1000 cm-1) | nominal increase in uptake | broadening of PFNA's peaks | ≤ 50 | no significant evolution of heat | broadening of PFNA's peaks | remained largely unchanged
